# Measured values published in article PMC10545747, “Development of cyclopeptide inhibitors of cGAS targeting protein-DNA interaction and phase separation” (Nature Communications, 2023).
# Where “and” joins values, the source holds several entries; their conditions need not be identical. Equal values may be shown once. Entries after “also recorded” stand apart in the source; their conditions may differ. Square brackets hold non-standard residues; d marks the D form. Peptide text beside a SMILES is read from it.
# Legend:
# [1] = system: dsDNA-stimulated THP1 cells; assay: qPCR of IFNB1/CXCL10/IL6 mRNA in THP1 cells stimulated by dsDNA (ISD, HSV60mer); format: cell-based, human; conditions: for IFNB1 mRNA, qPCR, Fig. 2b: 10 μM
# Source text: To screen direct cGAS inhibitors targeting protein-DNA interface from our developed focused library of macrocyclic peptides, we applied an RNA-based fluorescent biosensor for 2’,3’-cGAMP to detect cGAS activity in vitro (Supplementary Fig. 1a)[49]. The formation of 2’,3’-cGAMP from ATP and GTP was catalyzed by recombinant human cGAS enzyme (hcGAS-ΔN, residues 147–522, Supplementary Fig. 1b) in the presence of ISD (interferon stimulatory DNA, a 45-bp dsDNA), which was readily quantified by the RNA-based fluorescent biosensor and was further confirmed by ion exchange chromatography (Supplementary Fig. 1c). […] Subsequently, a total of 90 macrocyclic peptides were screened at a concentration of 20 μM (Fig. 1a and Supplementary Fig. 1e), and 4 hits (XQ2, XQ8, XQ19, and XQ46) were obtained for further testing at a cut-off of 40% inhibition (Supplementary Table 1). To evaluate the inhibitory effect of the hits against cGAS in cells, we employed real-time quantitative PCR (qPCR) to examine mRNA levels of IFNΒ1 in THP1 cells. The reported cGAS inhibitor RU.521 was used as the positive control, and the non-active peptide XQ28 in the screening assay was used as the negative control. […] The inhibition of cGAS by these hits was further confirmed in the reporter cell line THP1-Lucia ISG (Invivogen) that expresses secreted luciferase induced by an IRF3-inducible ISG54 promoter (Fig. 1c). The discrepancy between the inhibitory effect of the hits in protein and cellular assays may be attributed to their different cellular permeability.
# (§1) The indicated cells were stimulated with either ISD (Sangon Biotech), HSV-1 (Provided by Dr. Zhengfan Jiang), HSV60mer (Sangon Biotech), SATE-cddA[70], 2’3’-cGAMP (Invivogen, Cat# tlrl-nacga23-1), ADU-S100 (MedChemExpress, Cat# HY-12885A) or Poly(I:C) (Invivogen, Cat# tlrl-pic) after XQ2 or XQ2B treatment. Total RNA was isolated from indicated cells that incubated with the drugs for indicated time or mice tissues by using NucleoZOL reagent (MACHEREY-NAGEL) according to the manufacturer’s instructions. The quantifications of mRNA levels were carried out by real-time PCR using a PerfectStart® Uni RT&qPCR Kit (TransGen Biotech) on the QuantStudio 5 qPCR machine (Applied Biosystems). Samples were carried out in triplicate and the target CT values were normalized to GAPDH CT values. Primers of qPCR used in this study can be found in Supplementary Table S2.
# [2] = system: macrophage RAW264.7 cells; assay: qPCR of Ifnb1/Cxcl10/Il6 mRNA in RAW264.7 cells (ISD or HSV-1); format: cell-based, mouse; design: key to Ifnb1 mRNA (Fig. S2c) / Cxcl10 mRNA (Fig. S2c) / Ifnb1 mRNA (Fig. S2d) / Cxcl10 mRNA (Fig. S2d) / Ifnb1 mRNA (Fig. S7g) / Cxcl10 mRNA (Fig. S7g) / Il6 mRNA (Fig. S7g): mRNA level normalized to GAPDH (relative expression)
# Protocol: as §1, with “S2. […]” for “S2.”
# (c) L929, p = 0.0005 (Ifnb1),
# BMDMs, p = 0.0001 (Ifnb1), p < 0.0001 (Cxcl10).
# representative of three independent experiments in (a-g). (Data are presented as mean ± SD, n = 3 independent
# Source data are provided as a Source Data file.
# L929 cells = assay: ISD-induced autophagy, LC3-II immunoblotting; format: cell-based, mouse; conditions: for LC3-II relative gray ratio (normalized to GAPDH), Fig. S3a: ISD +
# Protocol: Total cell lysates were prepared in RIPA lysis buffer (Beyotime Biotechnology) supplemented with 1 mM PMSF and 1× protease inhibitor cocktail (Yeasen), and nuclear protein was extracted by nuclear protein extraction kit (Solarbio) in accordance with the manufacturer’s instructions. The samples were separated by SDS-PAGE and transferred to the PVDF membrane (Millipore). The membranes were incubated with the indicated primary antibodies at 4 °C overnight and then incubated with an HRP-conjugated anti-rabbit IgG antibody (Cell Signaling, Cat# 7074, 1:5000) or anti-mouse IgG antibody (Cell Signaling, Cat# 7076, 1:5000) at room temperature for 1 h. The signal was visualized by using the NcmECL Ultra kit (New Cell & Molecular Biotech) and then was exposed by using MiniChemi (SageCreation).
# Supplementary Fig. 3. […] (a) L929 cells were pretreated for
# 4 h with DMSO or the indicated doses of XQ2, followed by stimulation with dsDNA for 4 h, and then cell lysates were
# (b) Jurkat cells were exposed to the indicated doses of XQ2, and then stimulated with
# Data are representative of three independent experiments in (a, b). (Data are presented as mean ± SD, n = 3 independent
# provided as a Source Data file.
# (1 picture or pasted object on this page, not shown here)
compound,measurement,setting,value
"CC(C)C[C@@H]1NC(=O)[C@H](CCCNC(=N)N)NC(=O)[C@H](C(C)C)NC(=O)[C@@H]2CCCN2C(=O)[C@@H](Cc2ccccc2)NC(=O)[C@H](CC(C)C)NC(=O)[C@H](CCCNC(=N)N)NC(=O)[C@H](C(C)C)NC(=O)[C@H](C)NC(=O)[C@@H](Cc2ccccc2)NC1=O [XQ2, Cyclo (LfAVRLfPVR)] (cyclo(L[dF]AVRL[dF]PVR))",CXCL10 mRNA (Fig. S2a),"[1]; ISD, XQ2 0.31 μM",608.071 and 547.477 and 553.882
same,IFNB1 mRNA (Fig. S2a),"[1]; ISD, XQ2 0.31 μM",85.2902 and 89.4127 and 103.445
same,IL6 mRNA (Fig. S2a),"[1]; ISD, XQ2 0.31 μM",53.8661 and 62.1977 and 48.2598
same,CXCL10 mRNA (Fig. S2a),"[1]; ISD, XQ2 0.63 μM",550.9 and 499.514 and 482.522
same,IFNB1 mRNA (Fig. S2a),"[1]; ISD, XQ2 0.63 μM",75.3551 and 77.8155 and 85.6546
same,IL6 mRNA (Fig. S2a),"[1]; ISD, XQ2 0.63 μM",45.9203 and 56.9516 and 44.1827
same,CXCL10 mRNA (Fig. S2a),"[1]; ISD, XQ2 1.25 μM",440.727 and 424.983 and 441.062
same,IFNB1 mRNA (Fig. S2a),"[1]; ISD, XQ2 1.25 μM",54.4915 and 50.1897 and 58.943
same,IL6 mRNA (Fig. S2a),"[1]; ISD, XQ2 1.25 μM",59.6412 and 54.8577 and 42.9996
same,CXCL10 mRNA (Fig. S2a),"[1]; ISD, XQ2 2.5 μM",320.996 and 337.289 and 307.846
same,IFNB1 mRNA (Fig. S2a),"[1]; ISD, XQ2 2.5 μM",46.4673 and 40.8489 and 46.9306
same,IL6 mRNA (Fig. S2a),"[1]; ISD, XQ2 2.5 μM",51.498 and 49.1657 and 30.2376
same,CXCL10 mRNA (Fig. S2a),"[1]; ISD, XQ2 5 μM",341.101 and 357.811 and 355.382
same,IFNB1 mRNA (Fig. S2a),"[1]; ISD, XQ2 5 μM",26.7077 and 29.7394 and 30.8514
same,IL6 mRNA (Fig. S2a),"[1]; ISD, XQ2 5 μM",24.0755 and 29.7141 and 20.0828
same,CXCL10 mRNA (Fig. S2a),"[1]; ISD, XQ2 10 μM",329.162 and 346.227 and 299.128
same,IFNB1 mRNA (Fig. S2a),"[1]; ISD, XQ2 10 μM",10.6974 and 11.3948 and 12.0973
same,IL6 mRNA (Fig. S2a),"[1]; ISD, XQ2 10 μM",18.3875 and 16.237 and 20.2076
same,CXCL10 mRNA (Fig. S2a),"[1]; Mock, XQ2 0.31 μM",0.6255 and 0.7855 and 0.8542
same,IFNB1 mRNA (Fig. S2a),"[1]; Mock, XQ2 0.31 μM",0.7527 and 0.6452 and 0.8722
same,IL6 mRNA (Fig. S2a),"[1]; Mock, XQ2 0.31 μM",0.9875 and 1.125 and 1.458
same,CXCL10 mRNA (Fig. S2a),"[1]; Mock, XQ2 0.63 μM",0.4588 and 0.432 and 0.4044
same,IFNB1 mRNA (Fig. S2a),"[1]; Mock, XQ2 0.63 μM",0.713 and 0.5919 and 0.8053
same,IL6 mRNA (Fig. S2a),"[1]; Mock, XQ2 0.63 μM",1.48 and 1.078 and 1.222
same,CXCL10 mRNA (Fig. S2a),"[1]; Mock, XQ2 1.25 μM",1.308 and 1.359 and 1.615
same,IFNB1 mRNA (Fig. S2a),"[1]; Mock, XQ2 1.25 μM",0.9026 and 1.107 and 1.382
same,CXCL10 mRNA (Fig. S2a),"[1]; Mock, XQ2 2.5 μM",3.137 and 2.991 and 2.833
same,IFNB1 mRNA (Fig. S2a),"[1]; Mock, XQ2 2.5 μM",1.426 and 1.751 and 1.799
same,IL6 mRNA (Fig. S2a),"[1]; Mock, XQ2 2.5 μM",2.387 and 2.459 and 3.439
same,CXCL10 mRNA (Fig. S2a),"[1]; Mock, XQ2 5 μM",1.923 and 2.134 and 2.246
same,IFNB1 mRNA (Fig. S2a),"[1]; Mock, XQ2 5 μM",1.17 and 1.093 and 1.0788
same,CXCL10 mRNA (Fig. S2a),"[1]; Mock, XQ2 10 μM",4.593 and 4.941 and 4.3739
same,IFNB1 mRNA (Fig. S2a),"[1]; Mock, XQ2 10 μM",1.523 and 2.285 and 2.284
same,IL6 mRNA (Fig. S2a),"[1]; Mock, XQ2 10 μM",4.656 and 4.111 and 3.925
same,"dsDNA/ISD-induced IFNB1, CXCL10, IL6 expression",[1]; THP1,"inhibited the expression level of IFNΒ1 and CXCL10, as well as IL6; also recorded: best potency in the cellular assays"
same,"IFNB1 mRNA, qPCR, Fig. 2b","[1]; THP1, ISD",72.2364 and 85.3888 and 75.3743
same,"IFNB1 mRNA, qPCR, Fig. 2b","[1]; THP1, Mock (no stimulus)",1.523 and 2.285 and 2.284
same,"IFNB1 mRNA, qPCR, Fig. 1b","[1]; THP1, dsDNA 6 h, hits 10 μM, replicate values",24.5085 and 22.546 and 27.0371
same,cellular efficacy against cGAS,"[1]; as stated in the rebuttal letter, cellular assays",< 10 µM
same,Ifnb1 and Cxcl10 expression induced by ISD and HSV-1,"[2]; RAW264.7, 10 μM",significantly inhibited the expression of Ifnb1 and its downstream gene Cxcl10
same,Cxcl10 mRNA (Fig. S2d),"[2]; RAW264.7, HSV-1+XQ2",226.869 and 260.086 and 204.298
same,Ifnb1 mRNA (Fig. S2d),"[2]; RAW264.7, HSV-1+XQ2",1317.92 and 1543.45 and 1644.53
same,Cxcl10 mRNA (Fig. S2c),"[2]; RAW264.7, ISD+XQ2",1626.72 and 1806.59 and 1855.72
same,Ifnb1 mRNA (Fig. S2c),"[2]; RAW264.7, ISD+XQ2",12350.6 and 12954.9 and 11525.9
same,Cxcl10 mRNA (Fig. S2c),"[2]; RAW264.7, XQ2 alone",3.511 and 3.569 and 3.235
same,Cxcl10 mRNA (Fig. S2d),"[2]; RAW264.7, XQ2 alone",3.511 and 3.569 and 3.235
same,Ifnb1 mRNA (Fig. S2c),"[2]; RAW264.7, XQ2 alone",1.57 and 1.726 and 1.836
same,Ifnb1 mRNA (Fig. S2d),"[2]; RAW264.7, XQ2 alone",1.57 and 1.726 and 1.836
same,"ISD-induced autophagy, LC3-II formation",L929 cells,significantly reduced ISD-induced autophagy
same,"LC3-II relative gray ratio (normalized to GAPDH), Fig. S3a",L929 cells; XQ2 5 μM,1.62 and 1.737 and 1.498
same,"LC3-II relative gray ratio (normalized to GAPDH), Fig. S3a",L929 cells; XQ2 10 μM,1.275 and 1.336 and 1.295
